Laboratory results published in ChEMBL document CHEMBL5365417, “The development of diphenyleneiodonium analogs as GPR3 agonists” (Bioorg Med Chem Lett, 2023).

These compounds were tested against T1, G-protein coupled receptor 3 (Homo sapiens, UniProt P46089) (assay: Agonist activity at human GPR3 expressed in HEK293 cells assessed as increase in cAMP accumulation at 1 uM incubated for 30 mins by AlphaScreen assay relative to control).
Type: functional, cell-based

T1 sequence (P46089 whole entry): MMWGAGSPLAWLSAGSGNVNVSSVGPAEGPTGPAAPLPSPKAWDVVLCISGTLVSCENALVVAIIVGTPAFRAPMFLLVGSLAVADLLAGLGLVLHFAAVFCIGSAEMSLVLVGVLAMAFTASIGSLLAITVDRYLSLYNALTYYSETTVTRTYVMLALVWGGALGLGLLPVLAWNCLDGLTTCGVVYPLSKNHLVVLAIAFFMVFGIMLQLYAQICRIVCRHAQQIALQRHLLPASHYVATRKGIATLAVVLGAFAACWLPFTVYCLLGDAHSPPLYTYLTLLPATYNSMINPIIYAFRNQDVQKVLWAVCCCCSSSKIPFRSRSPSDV

Row | Compound | Activity [%]
1 | CCCCCCCCCCCCC/C=C/[C@@H](O)[C@@H](N)COP(=O)(O)O | 20

What follows are compounds tested against T1, G-protein coupled receptor 3 (assay: Agonist activity at human GPR3 expressed in HEK293 cells assessed as increase in cAMP accumulation incubated for 30 mins by HTRF assay).
Type: functional, cell-based

Row | EC50 [µM] | Compound
2 | 114 | C[N+]1(C)c2ccccc2-c2ccccc21
3 | 67 | c1ccc2c(c1)cnc1ccccc12 [PHENANTHRIDINE]
4 | 19.3 | FC1(F)Oc2cc3c(cc2O1)-c1ccccc1[I+]3
5 | > 100 | CC1(N)c2ccccc2-c2ccccc21
6 | 105 | Fc1ccc2c(c1)oc1ccccc12
7 | 66 | CC(C)(C)[S+]([O-])N=C1c2ccccc2-c2ccccc21 (stereo not given)
8 | 86 | Cc1nc2ccccc2c2ccccc12
9 | > 100 | CN(C)C1(C)c2ccccc2-c2ccccc21
10 | 382 | C[n+]1cc2ccccc2c2ccccc21
11 | 45 | O=c1[nH]c2ccccc2c2ccccc12
12 | > 100 | NC1c2ccccc2-c2ccccc21
13 | 60 | CC1c2ccccc2-c2ccccc2N1C (stereo not given)
14 | 21 | CN(C)C1c2ccccc2-c2ccccc21
15 | 158 | O=CNC1c2ccccc2-c2ccccc21

Row | Compound | EC50 [µM]
16 | Cn1c2ccccc2c2ccccc21 | 40
17 | O=[N+]([O-])c1ccc2c(c1)[I+]c1ccccc1-2 | 1.34
18 | O=S1(=O)c2ccccc2-c2ccccc21 | 5.1
19 | c1ccc2c(c1)[nH]c1ccccc12 [CARBAZOLE] | 7.6
20 | c1ccc2c(c1)sc1ccccc12 [DIBENZOTHIOPHENE] | 81
